Reference: US10941157B2, “Pesticidal compositions and uses thereof” (Gilead Apollo, LLC, priority 2015, dated 2021)
In brackets after ≈: the same amount, converted by molar mass. Read-outs that look alike come from different tables or passages of the source.

Legend:
Assay type in all cases: cell-based
Botrtyis cinerea (Bc) = assay: In vitro pathogen growth inhibition assay, Bc; conditions: 48 h
Procedure: (§1) A growth inhibition assay was conducted to determine the ability of compounds to control the growth of fungal pathogens, such as Botrtyis cinerea (Bc), Collectotrichum graminicola (Cg), Diplodia maydis (Dm), Fusarium moniliforme (Fm), Fusarium virguliforme (Fv), Phytophthora capsici (Pc), Rhizoctonia solani (Rs), and Septoria tritici (St). The compounds listed in Table 1 were each dissolved in DMSO at 2.5 mg/ml to produce compound stock solutions (“stocks”). […] Negative controls on each plate included 2% DMSO, water, and a blank (media+2% DMSO). Fungal spores were isolated from previously sub-cultured plates of Botrtyis cinerea (Bc), Collectotrichum graminicola (Cg), Diplodia maydis (Dm), Fusarium moniliforme (Fm), Fusarium virguliforme (Fv), Phytophthora capsici (Pc), and Septoria tritici (St). The isolated spores were diluted to individual concentrations with a 17% V8 liquid media. For Rhizoctonia solani (Rs), 1.5 mm mycelial plugs were used in place of spores and ¼ Potato Dextrose Broth (PDB) was used for dilution. The spore concentrations and plug sizes were based on growth curves generated at 48 hours for each pathogen. In a second 96-well plate, the spores or mycelial plugs, media, diluted compound solutions, and controls were combined. Once the compound was added, a true final concentration of compound in each well was measured by an OD600 reading, which adjusted for any compound precipitation that might have occurred in the well. Plate readings were repeated at both 24 and 48 hours. The blank negative control was used as a background subtraction. Additional visual ratings were performed at both 24 and 48 hours for checking on precipitation and confirming efficacy. […] Both tables list the concentration of each compound that was sufficient to ≥90% inhibition of growth for each of the fungal pathogens listed above. In addition, some of compounds were tested in a yeast growth inhibition assay for Saccharomyces cerevisiae (Sc). Table 2 lists the concentration of the tested compound that was sufficient to ≥75% inhibition of Saccharomyces cerevisiae (Sc).

[1] = test system: Collectotrichum graminicola (Cg); assay: In vitro pathogen growth inhibition assay, Cg; conditions: 48 h
Procedure: as §1

Diplodia maydis (Dm) = assay: In vitro pathogen growth inhibition assay, Dm; conditions: Stenocarpella maydis, 48 h
Procedure: as §1

[2] = test system: Fusarium moniliforme (Fm); assay: In vitro pathogen growth inhibition assay, Fm; conditions: Fusarium verticillioides
Procedure: as §1

[3] = test system: Fusarium virguliforme (Fv); assay: In vitro pathogen growth inhibition assay, Fv
Procedure: as §1

[4] = test system: Phytophthora capsici (Pc); assay: In vitro pathogen growth inhibition assay, Pc; conditions: 48 h
Procedure: as §1

Rhizoctonia solani (Rs) = assay: In vitro pathogen growth inhibition assay, Rs (mycelial plugs); conditions: Rhizoctonia solani, 48 h, mycelial plugs
Procedure: as §1

Septoria tritici (St) = assay: In vitro pathogen growth inhibition assay, St; conditions: Zymoseptoria tritici, 48 h
Procedure: as §1

[5] = ≥90% inhibition, 48 hours vs 2% DMSO control, read-out: Compound Concentration (ppm) sufficient for ≥90% inhibition of growth, Bc
[6] = ≥90% inhibition, 48 hours vs 2% DMSO control, read-out: Compound Concentration (ppm) sufficient for ≥90% inhibition of growth, Cg
[7] = ≥90% inhibition, 48 hours vs 2% DMSO control, read-out: Compound Concentration (ppm) sufficient for ≥90% inhibition of growth, Dm
[8] = ≥90% inhibition, 48 hours vs 2% DMSO control, read-out: Compound Concentration (ppm) sufficient for ≥90% inhibition of growth, Fm
[9] = ≥90% inhibition, 48 hours vs 2% DMSO control, read-out: Compound Concentration (ppm) sufficient for ≥90% inhibition of growth, Fv
[10] = ≥90% inhibition, 48 hours vs 2% DMSO control, read-out: Compound Concentration (ppm) sufficient for ≥90% inhibition of growth, Pc
[11] = ≥90% inhibition, 48 hours vs 2% DMSO control, read-out: Compound Concentration (ppm) sufficient for ≥90% inhibition of growth, Rs
[12] = ≥90% inhibition, 48 hours vs 2% DMSO control, read-out: Compound Concentration (ppm) sufficient for ≥90% inhibition of growth, St
[13] = ≥90% growth inhibition, 48 hours, vs 2% DMSO control, read-out: Compound Concentration (ppm) sufficient for ≥90% inhibition of Bc
[14] = ≥90% growth inhibition, 48 hours, vs 2% DMSO control, read-out: Compound Concentration (ppm) sufficient for ≥90% inhibition of Cg
[15] = ≥90% growth inhibition, 48 hours, vs 2% DMSO control, read-out: Compound Concentration (ppm) sufficient for ≥90% inhibition of Dm
[16] = ≥90% growth inhibition, 48 hours, vs 2% DMSO control, read-out: Compound Concentration (ppm) sufficient for ≥90% inhibition of Fm
[17] = ≥90% growth inhibition, 48 hours, vs 2% DMSO control, read-out: Compound Concentration (ppm) sufficient for ≥90% inhibition of Fv
[18] = ≥90% growth inhibition, 48 hours, vs 2% DMSO control, read-out: Compound Concentration (ppm) sufficient for ≥90% inhibition of Pc
[19] = ≥90% growth inhibition, 48 hours, vs 2% DMSO control, read-out: Compound Concentration (ppm) sufficient for ≥90% inhibition of Rs
[20] = ≥90% growth inhibition, 48 hours, vs 2% DMSO control, read-out: Compound Concentration (ppm) sufficient for ≥90% inhibition of St

Row | Structure (SMILES) | IC90 (Botrtyis cinerea (Bc); [5]) [µg/mL] | IC90 [1, 6] [µg/mL] | IC90 (Diplodia maydis (Dm); [7]) [µg/mL] | IC90 [2, 8] [µg/mL] | IC90 [3, 9] [µg/mL] | IC90 [4, 10] [µg/mL] | IC90 (Rhizoctonia solani (Rs); [11]) [µg/mL] | IC90 (Septoria tritici (St); [12]) [µg/mL] | IC90 (Botrtyis cinerea (Bc); [13]) [µg/mL] | IC90 [1, 14] [µg/mL] | IC90 (Diplodia maydis (Dm); [15]) [µg/mL] | IC90 [2, 16] [µg/mL] | IC90 [3, 17] [µg/mL] | IC90 [4, 18] [µg/mL] | IC90 (Rhizoctonia solani (Rs); [19]) [µg/mL] | IC90 (Septoria tritici (St); [20]) [µg/mL]
1 | COc1ccc(F)cc1[C@H](Cn1c(=O)n(C(C)(C)C(=O)N2CC=CC2)c(=O)c2c(C)c(-n3nccn3)sc21)OC[C@@H](C)O [Compound I-081] | 2 (≈ 3.26 µM) | 0.4 (≈ 0.653 µM) | 2 (≈ 3.26 µM) | 0.08 (≈ 0.131 µM) | 0.4 (≈ 0.653 µM) | ≥ 50 | 0.4 (≈ 0.653 µM) | > 50 |  |  |  |  |  |  |  | 
2 | CCc1ccc(F)cc1[C@H](Cn1c(=O)n(C(C)(C)C(=O)NC(C)C)c(=O)c2c(C)c(-n3nccn3)sc21)OCC(C)(C)C#N [Compound I-279] |  |  |  |  |  |  |  |  | 0.08 (≈ 0.128 µM) | 0.08 (≈ 0.128 µM) | 2 (≈ 3.21 µM) | 0.08 (≈ 0.128 µM) | 0.08 (≈ 0.128 µM) | > 50 | 0.08 (≈ 0.128 µM) | > 50
3 | COc1ccc(F)cc1[C@H](Cn1c(=O)n(C(C)(C)C(=O)N2CCCC2)c(=O)c2c(C)c(-n3nccn3)sc21)OCC(C)C [Compound I-028] | 0.4 (≈ 0.653 µM) | 0.08 (≈ 0.131 µM) | ≥ 0.08 | 0.08 (≈ 0.131 µM) | 0.4 (≈ 0.653 µM) | > 50 | 0.08 (≈ 0.131 µM) | ≥ 2 |  |  |  |  |  |  |  | 
4 | CCNC(=O)C(C)(C)n1c(=O)c2c(C)c(-n3nccn3)sc2n(C[C@H](OCC(C)C)c2cc(F)ccc2OC)c1=O [Compound I-025] | 0.4 (≈ 0.682 µM) | 0.4 (≈ 0.682 µM) | 0.4 (≈ 0.682 µM) | 0.08 (≈ 0.136 µM) | 0.4 (≈ 0.682 µM) | > 50 | 0.4 (≈ 0.682 µM) | > 10 |  |  |  |  |  |  |  | 
5 | COc1ccc(F)cc1[C@H](Cn1c(=O)n([C@H](C)C(N)=O)c(=O)c2c(C)c(-n3nccn3)sc21)OCCC#N [Compound I-200] |  |  |  |  |  |  |  |  | 2 (≈ 3.69 µM) | > 50 | > 50 | 2 (≈ 3.69 µM) | 2 (≈ 3.69 µM) | > 50 | 2 (≈ 3.69 µM) | > 50
6 | Cc1c(-n2nccn2)sc2c1c(=O)n(C(C)(C)C(=O)NC(C)C)c(=O)n2C[C@H](OC(C)C)c1cc(F)ccc1OCC#N [Compound I-070] | 0.4 (≈ 0.654 µM) | 2 (≈ 3.27 µM) | 0.4 (≈ 0.654 µM) | 0.08 (≈ 0.131 µM) | 0.08 (≈ 0.131 µM) | > 50 | 2 (≈ 3.27 µM) | ≥ 10 |  |  |  |  |  |  |  | 
7 | Cc1c(-n2nccn2)sc2c1c(=O)n(C(C)(C)C(=O)NC(C)C)c(=O)n2CCc1cc(F)ccc1OCCC#N [Compound I-340] |  |  |  |  |  |  |  |  | 10 (≈ 17.6 µM) | 50 (≈ 88.1 µM) | 50 (≈ 88.1 µM) | 2 (≈ 3.52 µM) | 2 (≈ 3.52 µM) | > 50 | 50 (≈ 88.1 µM) | > 50
8 | COc1ccccc1[C@H](Cn1c(=O)n(C(C)(C)C(=O)N2CCCC2)c(=O)c2c(C)c(-n3cccn3)sc21)OC(C)C [Compound I-046] | 2 (≈ 3.45 µM) | 2 (≈ 3.45 µM) | 2 (≈ 3.45 µM) | 0.08 (≈ 0.138 µM) | 0.4 (≈ 0.69 µM) | > 50 | 0.4 (≈ 0.69 µM) | ≥ 50 |  |  |  |  |  |  |  | 
